{"source": "patent US20100003311A1", "about": "“Antimicrobial Composition” (priority 2006, published 2010)", "key": {"[1]": {"tested_on": "epithelial surfaces (both mucosa and skin)", "test": "release of β-defensin 2 by epithelial surfaces", "source_text": "The stimulation of β-defensin 2 by hyaluronic acid has been observed by the patent inventor. […] The application of hyaluronic acid to the skin is thought to increase the amount of innate immunity antibiotic peptides such as β-defensin 2 that are present and therefore provide an increased level of innate immunity. The stimulation of defensin and other innate immunity antibiotic peptide expression in sites of skin and mucosa injury may therefore facilitate tissue repair by providing innate immunity and decreasing the possible bacterial contamination and colonisation of tissues by opportunistic pathogens."}, "[2]": {"tested_on": "human keratinocytes", "test": "β-defensin production in culture medium containing human keratinocytes contacted with the compositions (FIG. 1)", "assay_type": "cell-based", "details": "compared with lipopolysaccharide", "source_text": "The data was obtained by measuring β-defensin production in culture medium containing human keratinocytes when contacted with the various compositions."}}}
{"substance": "hyaluronic acid", "values": [{"measurement": "release of β-defensin 2", "setting": "[1]", "result": "able to determine the release of β-defensin 2 by epithelial surfaces"}, {"measurement": "stimulation of β-defensin production", "setting": "[2]", "result": "stimulates β-defensin production by human keratinocytes significantly, and considerably more than lipopolysaccharide"}]}
